Assays:
[1] = Hypotensive effect in the anesthetized dog, intravenous route; type: in vivo; details: dose 100 μg/kg
Method: In the use of the compounds of the invention to produce hypotensive effects in warm-blooded animals, administration by the injectable route is preferred, preferably the intravenous route.
Thus in the anesthetized dog by the intravenous route the dose to produce hypotension is from about 1 μg/kg. to about 200 μg/kg. and preferably from about 10 μg/kg. to about 100 μg/kg. Using this procedure the following results were obtained.

[2] = test system: bronchoconstricting effects of a standard dose of acetylcholine; test: Bronchodilation upon aerosol inhalation in the guinea pig (method of Rosenthale et al.): inhibition of acetylcholine bronchoconstriction; type: in vivo
Text: In using the compounds of the invention to produce bronchodilating effects in warm-blooded animals, they may be administered in a variety of dosage forms: oral, injectable, and aerosol inhalation. Aerosol inhalation is a preferred method because of its rapid onset of action, great potency, and specificity of action. The particular dosage to obtain the bronchodilating effect will vary with the particular compound employed, the particular animal involved, and the degree of bronchodilation desired. In the guinea pig, by aerosol inhalation, the dose to produce bronchodilation is from about 0.015 micrograms to about 50 micrograms, and preferably from about 0.015 to about 25 micrograms. The bronchodilation produced upon aerosol inhalation can be observed by the method of Rosenthale et al., J. Pharmacol. Exp. Ther., 178, 541 (1971). Using this procedure the following result was obtained.

## C#C[C@@](O)(/C=C/[C@@H]1[C@@H](C/C=C\CCCC(=O)O)[C@H](O)C[C@H]1O)CCCCC [7-(2β-[(3S)-3-Ethynyl-3-Hydroxy-Trans-1-Octenyl]-3α,5β-Dihydroxy-1α-cyclopentyl)-Cis-5-Heptenoic Acid]
[1]
  Δb.p.: -16 mm. Hg
[2]; dose 1.5 μg
  Percent Inhibition of the bronchoconstricting effects of a standard dose of acetylcholine: 64%
[2]; dose 15 μg
  Percent Inhibition of the bronchoconstricting effects of a standard dose of acetylcholine: 78%

Source: patent US3959363A, “15-Ethynyl-PFG2β” (American Home Products Corporation, priority 1974, dated 1976)
